Data taken from ChEMBL document CHEMBL2074067, “TP-search Transporter Database” (J Physiol, 1994).

Target: ATP-dependent translocase ABCB1 (Homo sapiens, UniProt P08183)
Test: TP_TRANSPORTER: transepithelial transport (basal to apical) in Caco-2 cells
Format: functional, cell-based

Chain of ATP-dependent translocase ABCB1 (P08183 whole entry): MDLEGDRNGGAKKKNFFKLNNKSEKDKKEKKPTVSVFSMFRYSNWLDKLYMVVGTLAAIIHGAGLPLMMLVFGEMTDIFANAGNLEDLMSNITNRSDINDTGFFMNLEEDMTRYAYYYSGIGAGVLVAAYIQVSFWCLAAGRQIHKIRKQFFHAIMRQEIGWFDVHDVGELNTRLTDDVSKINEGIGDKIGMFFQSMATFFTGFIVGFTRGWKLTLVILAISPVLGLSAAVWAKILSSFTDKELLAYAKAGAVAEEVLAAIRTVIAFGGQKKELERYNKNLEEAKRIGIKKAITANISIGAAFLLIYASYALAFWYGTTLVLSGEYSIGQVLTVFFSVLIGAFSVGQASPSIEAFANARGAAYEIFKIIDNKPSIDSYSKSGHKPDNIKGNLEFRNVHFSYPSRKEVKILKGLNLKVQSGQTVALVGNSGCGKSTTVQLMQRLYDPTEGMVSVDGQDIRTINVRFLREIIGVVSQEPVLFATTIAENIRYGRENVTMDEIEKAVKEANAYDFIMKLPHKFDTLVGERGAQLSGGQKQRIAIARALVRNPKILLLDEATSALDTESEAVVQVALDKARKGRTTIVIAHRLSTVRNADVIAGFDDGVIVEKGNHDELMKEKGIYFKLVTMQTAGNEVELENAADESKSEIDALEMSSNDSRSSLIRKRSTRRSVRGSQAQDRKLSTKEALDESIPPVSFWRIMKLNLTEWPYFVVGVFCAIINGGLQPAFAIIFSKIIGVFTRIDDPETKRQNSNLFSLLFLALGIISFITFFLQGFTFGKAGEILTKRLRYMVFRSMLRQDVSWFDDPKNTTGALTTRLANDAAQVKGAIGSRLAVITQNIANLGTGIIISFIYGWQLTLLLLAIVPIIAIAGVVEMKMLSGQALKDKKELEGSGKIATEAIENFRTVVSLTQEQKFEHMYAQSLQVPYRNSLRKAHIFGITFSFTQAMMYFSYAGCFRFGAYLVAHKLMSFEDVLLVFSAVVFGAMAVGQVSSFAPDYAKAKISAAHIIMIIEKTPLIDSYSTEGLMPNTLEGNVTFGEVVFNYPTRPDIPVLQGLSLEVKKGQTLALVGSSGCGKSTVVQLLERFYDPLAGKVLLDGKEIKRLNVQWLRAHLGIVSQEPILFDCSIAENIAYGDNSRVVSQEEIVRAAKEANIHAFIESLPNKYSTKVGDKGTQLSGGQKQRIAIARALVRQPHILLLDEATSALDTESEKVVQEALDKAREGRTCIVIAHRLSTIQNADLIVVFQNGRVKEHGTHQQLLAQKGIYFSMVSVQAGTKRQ

Activity: substrate [+]
SMILES: CNC(=C[N+](=O)[O-])NCCSCc1ccc(CN(C)C)o1 [RANITIDINE]
